Measured values: ChEMBL document CHEMBL6120947, “Synthesis and Antiosteoporotic Characterization of Diselenyl Maleimides: Discovery of a Potent Agent for the Treatment of Osteoporosis by Targeting RANKL” (J Med Chem, 2024)
Activity calls are given as the source filed them. The calls are words filed in the database; no cut-off is given here.

Tests used:
BMDM [1] = assay: Inhibition of osteoclastogenesis in M-CSF/RANKL-induced osteoclast differentiation in C57BL/6J mouse BMDM cells at 1 uM measured for 1 to 3 days by TRAP staining based analysis; type: functional, cell-based; settings: time 1-3 day
[2] = Cytotoxicity against C57BL/6J mouse BMDM cells assessed as decrease in cell viability at 20 uM incubated for 48 hrs by MTT assay; type: toxicity, cell-based
Mus musculus [3] = assay: Anti-osteoporosis effect in OVX-induced osteoporosis C57BL/6 mouse model assessed as increase in Tb.N value at 10 mg/kg, po administered every other day for 8 weeks by micro-CT analysis; type: functional, organism-based
Mus musculus [4] = assay: Anti-osteoporosis effect in OVX-induced osteoporosis C57BL/6 mouse model assessed as increase in BV/TV value at 10 mg/kg, po administered every other day for 8 weeks by micro-CT analysis; type: functional, organism-based
[5] = Toxicity in OVX-induced osteoporosis C57BL/6 mouse model assessed as body weight change at 10 mg/kg, po administered every other day for 8 weeks; type: organism-based; settings: in vivo, 1344 h
BMDM [6] = assay: Inhibition of osteoclastogenesis in M-CSF/RANKL-induced osteoclast differentiation in C57BL/6J mouse BMDM cells assessed as reduction in NFATc1 mRNA level measured after 5 days by qRT-PCR analysis; type: functional, cell-based; settings: dose <= 2.0 µM, time 5.0 day
BMDM [7] = assay: Effect in ERK level in M-CSF/RANKL-induced osteoclast differentiation in C57BL/6J mouse BMDM cells at 1 uM measured upto 60 mins by Western blot analysis; type: functional, cell-based
BMDM [8] = assay: Inhibition of osteoclastogenesis in M-CSF/RANKL-induced osteoclast differentiation in C57BL/6J mouse BMDM cells assessed as decrease in c-Fos mRNA level at 1 uM measured for 5 days by qRT-PCR analysis; type: functional, cell-based; settings: time 5.0 day
MC3T3-E1 [9] = assay: Effect on osteoblast differentiation in mouse MC3T3-E1 cells assessed as change in collagen I mRNA level at 0.5 to 2 uM incubated for 7 days by qRT-PCR analysis; type: functional, cell-based; settings: dose 0.5-2 µM, time 7.0 day
Mus musculus [10] = assay: Anti-osteoporosis effect in OVX-induced osteoporosis C57BL/6 mouse model assessed as reduction in bone mass loss in distal femur at 10 mg/kg, po administered every other day for 8 weeks by micro-CT analysis; type: functional, organism-based
BMDM [11] = assay: Effect in JNK level in M-CSF/RANKL-induced osteoclast differentiation in C57BL/6J mouse BMDM cells at 1 uM measured upto 60 mins by Western blot analysis; type: functional, cell-based
BMDM [12] = assay: Inhibition of osteoclastogenesis in M-CSF/RANKL-induced osteoclast differentiation in C57BL/6J mouse BMDM cells assessed as suppression of osteoclast nuclei number measured after 7 days by F-actin ring-TRITC phalloidin staining based analysis; type: functional, cell-based; settings: dose <= 2.0 µM, time 7.0 day
MC3T3-E1 [13] = assay: Effect on osteoblast differentiation in mouse MC3T3-E1 cells assessed as change in Runx2 level at 0.5 to 2 uM incubated for 7 days by Western blot analysis; type: functional, cell-based; settings: dose 0.5-2 µM, time 7.0 day
[14] = Toxicity in OVX-induced osteoporosis C57BL/6 mouse model assessed as pathological change in heart at 10 mg/kg, po administered every other day for 8 weeks by H and E staining based analysis; type: organism-based; settings: in vivo, 1344 h
BMDM [15] = assay: Inhibition of osteoclastogenesis in M-CSF/RANKL-induced osteoclast differentiation in C57BL/6J mouse BMDM cells assessed as reduction in cathepsin K level measured after 5 days by Western blot analysis; type: functional, cell-based; settings: dose <= 2.0 µM, time 5.0 day
[16] = Toxicity in OVX-induced osteoporosis C57BL/6 mouse model assessed as animal fatality at 10 mg/kg, po administered every other day for 8 weeks; type: organism-based; settings: in vivo, 1344 h
[17] = Inhibition of C57BL/6 mouse T cell proliferation upto 2 uM incubated for 5 days by APC-Annexin V staining based analysis; type: toxicity; settings: 120 h, time 5 day
Mus musculus [18] = assay: Anti-osteoporosis effect in OVX-induced osteoporosis C57BL/6 mouse model assessed as increase in number of osteoclasts to bone surface area ratio at 10 mg/kg, po administered every other day for 8 weeks by TRAP staining based analysis; type: functional, organism-based
MC3T3-E1 [19] = assay: Effect on osteoblast differentiation in mouse MC3T3-E1 cells assessed as change in BMP2 mRNA level at 0.5 to 2 uM incubated for 7 days by qRT-PCR analysis; type: functional, cell-based; settings: dose 0.5-2 µM, time 7.0 day
BMDM [20] = assay: Inhibition of osteoclastogenesis in M-CSF/RANKL-induced osteoclast differentiation in C57BL/6J mouse BMDM cells assessed as reduction in bone resorption area measured after 6 days by hydroxyapatite resorption assay; type: functional, cell-based; settings: dose <= 2.0 µM, time 6.0 day
BMDM [21] = assay: Effect in p38 level in M-CSF/RANKL-induced osteoclast differentiation in C57BL/6J mouse BMDM cells at 1 uM measured upto 60 mins by Western blot analysis; type: functional, cell-based
[22] = target: T1, Tumor necrosis factor ligand superfamily member 11 (Homo sapiens) (UniProt O14788); assay: Binding affinity to CM5 sensor chip-immobilized RANKL (unknown origin) by SPR analysis; settings: dose 0.98-31.25 µM
T1 sequence (whole entry): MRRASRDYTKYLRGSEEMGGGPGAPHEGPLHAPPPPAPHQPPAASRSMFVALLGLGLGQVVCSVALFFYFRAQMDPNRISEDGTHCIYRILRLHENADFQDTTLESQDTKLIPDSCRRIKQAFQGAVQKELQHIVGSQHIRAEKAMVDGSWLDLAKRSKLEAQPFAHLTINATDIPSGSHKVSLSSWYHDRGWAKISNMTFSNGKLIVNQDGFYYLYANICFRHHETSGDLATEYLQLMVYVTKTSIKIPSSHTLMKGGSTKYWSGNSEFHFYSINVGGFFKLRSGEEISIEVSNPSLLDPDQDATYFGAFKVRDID

BMDM [23] = assay: Inhibition of osteoclastogenesis in M-CSF/RANKL-induced osteoclast differentiation in C57BL/6J mouse BMDM cells assessed as reduction in DC-STAMP mRNA level measured after 5 days by qRT-PCR analysis; type: functional, cell-based; settings: dose <= 2.0 µM, time 5.0 day
BMDM [24] = assay: Effect in p65 level in M-CSF/RANKL-induced osteoclast differentiation in C57BL/6J mouse BMDM cells at 1 uM measured upto 60 mins by Western blot analysis; type: functional, cell-based
RAW264.7 [25] = assay: Cytotoxicity against mouse RAW264.7 cells assessed as decrease in cell viability at 1 uM incubated for 48 hrs by MTT assay; type: toxicity, cell-based; settings: raw264.7, 48 h
RAW264.7 [26] = assay: Inhibition of osteoclastogenesis in RANKL-induced osteoclast differentiation in mouse RAW264.7 cells incubated for 4 days by TRAP staining based analysis; type: functional, cell-based; settings: time 4.0 day
[27] = Toxicity in OVX-induced osteoporosis C57BL/6 mouse model assessed as pathological change in kidney at 10 mg/kg, po administered every other day for 8 weeks by H and E staining based analysis; type: organism-based; settings: in vivo, 1344 h
MC3T3-E1 [28] = assay: Effect on osteoblast differentiation in mouse MC3T3-E1 cells assessed as change in ALP level at 0.5 to 2 uM incubated for 7 days by Western blot analysis; type: functional, cell-based; settings: dose 0.5-2 µM, time 7.0 day
BMDM [29] = assay: Inhibition of osteoclastogenesis in M-CSF/RANKL-induced osteoclast differentiation in C57BL/6J mouse BMDM cells assessed as reduction in JNK phosphorylation at 1 uM measured upto 60 mins by Western blot analysis; type: functional, cell-based

O=C1C([Se]c2ccccc2)=C([Se]c2ccccc2)C(=O)N1Cc1ccccc1
inhibition (BMDM [1]): Active | Activity [2]: Non-toxic | Activity (Mus musculus [3]): Active; Displayed Similar Effect With That Exhibited By Alendronate | Activity (Mus musculus [4]): Active; Displayed Similar Effect With That Exhibited By Alendronate | Activity [5]: Non-toxic | inhibition (BMDM [6]): Dose-dependent-effect | Activity (BMDM [7]): No effect | inhibition (BMDM [8]): Active | Activity (MC3T3-E1 [9]): No effect | Activity (Mus musculus [10]): Active; Displayed Similar Effect With That Exhibited By Alendronate | Activity (BMDM [11]): No effect | inhibition (BMDM [12]): Dose-dependent-effect | Activity (MC3T3-E1 [13]): No effect | Activity [14]: Non-toxic | inhibition (BMDM [15]): Dose-dependent-effect | Activity [16]: Non-toxic | Activity [17]: Non-toxic | Activity (Mus musculus [18]): Active; Displayed Similar Effect With That Exhibited By Alendronate | Activity (MC3T3-E1 [19]): No effect | inhibition (BMDM [20]): Dose-dependent-effect | Activity (BMDM [21]): No effect | Activity [22]: Dose-dependent-effect | inhibition (BMDM [23]): Dose-dependent-effect | Activity (BMDM [24]): No effect | Activity (RAW264.7 [25]): Non-toxic | inhibition (RAW264.7 [26]): Active | Activity [27]: Non-toxic | Activity (MC3T3-E1 [28]): No effect | inhibition (BMDM [29]): Active
